According to ChEMBL document CHEMBL3885861, “Open TG-GATES”:

Species on record: Rattus norvegicus
Assay: Open TG-GATES - Regimen: Single
Format: toxicity, organism-based, Sprague-Dawley
Design: regimen Single, gender Male, age 6 weeks
Settings: in vivo, iv, 0 mg/kg, route intravenous injection, dose level Control; for Bas / Eos / Hb / Ht / Lym / MCH / MCHC / MCV / Mono / Neu / Plat / RBC / Ret: tissue Blood; for KIDNEY_L / KIDNEY_R / KIDNEY_TOTAL: tissue Kidney; for ALT / AST / CRE / DBIL / GLC / K / LDH / Na / PL / RALB / TBIL / TC / TP / gamma-GTP: tissue Plasma

**Q.** With `CC(C)C[C@H](NC(=O)[C@H](Cc1ccccc1)NC(=O)c1cnccn1)B(O)O` [BORTEZOMIB] as the molecule, how does the TERMINAL_BW (3 h) read?
**A.** 223 g

**Q.** And the Bas (3 h)?
**A.** 0%

**Q.** What about the Eos (3 h) of the same molecule?
**A.** 0.8%

**Q.** And the Hb (3 h)?
**A.** 13.9 g/dL

**Q.** And the Ht (3 h)?
**A.** 39.5%

**Q.** What about the Lym (3 h) of the same molecule?
**A.** 81.4%

**Q.** What about the MCH (3 h) of the same molecule?
**A.** 22.9 pg

**Q.** What about the MCHC (3 h) of the same molecule?
**A.** 35.2%

**Q.** And the MCV (3 h)?
**A.** 65.1 fL

**Q.** And the Mono (3 h)?
**A.** 2.6%

**Q.** And the Neu (3 h)?
**A.** 14.8%

**Q.** And the Plat (3 h)?
**A.** 124.1 x10_4/uL

**Q.** And the RBC (3 h)?
**A.** 607 x10_4/ul

**Q.** What about the Ret (3 h) of the same molecule?
**A.** 9.3%

**Q.** And the KIDNEY_L (3 h)?
**A.** 0.9 g

**Q.** And the KIDNEY_R (3 h)?
**A.** 0.9 g

**Q.** What about the KIDNEY_TOTAL (3 h) of the same molecule?
**A.** 1.9 g

**Q.** And the ALT (3 h)?
**A.** 38.6 IU/L

**Q.** And the AST (3 h)?
**A.** 70.4 IU/L

**Q.** What about the CRE (3 h) of the same molecule?
**A.** 0.2 mg/dL

**Q.** And the DBIL (3 h)?
**A.** 0 mg/dL

**Q.** And the GLC (3 h)?
**A.** 191.2 mg/dL

**Q.** And the K (3 h)?
**A.** 3.9 meq/L

**Q.** What about the LDH (3 h) of the same molecule?
**A.** 175.8 IU/L

**Q.** And the Na (3 h)?
**A.** 142.3 meq/L

**Q.** And the PL (3 h)?
**A.** 138.6 mg/dL

**Q.** What about the RALB (3 h) of the same molecule?
**A.** 4.1 g/dL

**Q.** And the TBIL (3 h)?
**A.** 0.006 mg/dL

**Q.** What about the TC (3 h) of the same molecule?
**A.** 74.6 mg/dL

**Q.** What about the TP (3 h) of the same molecule?
**A.** 5.6 g/dL

**Q.** What about the gamma-GTP (3 h) of the same molecule?
**A.** 0.7 IU/L

**Q.** And the TERMINAL_BW (6 h)?
**A.** 220.7 g

**Q.** What about the Bas (6 h) of the same molecule?
**A.** 0%

**Q.** What about the Eos (6 h) of the same molecule?
**A.** 0.4%

**Q.** What about the Hb (6 h) of the same molecule?
**A.** 13.7 g/dL

**Q.** What about the Ht (6 h) of the same molecule?
**A.** 38.8%

**Q.** And the Lym (6 h)?
**A.** 77.6%

**Q.** And the MCH (6 h)?
**A.** 22.1 pg

**Q.** And the MCHC (6 h)?
**A.** 35.4%

**Q.** What about the MCV (6 h) of the same molecule?
**A.** 62.5 fL

**Q.** And the Mono (6 h)?
**A.** 2.8%

**Q.** What about the Neu (6 h) of the same molecule?
**A.** 18.4%

**Q.** And the Plat (6 h)?
**A.** 117.1 x10_4/uL

**Q.** What about the RBC (6 h) of the same molecule?
**A.** 622.4 x10_4/ul

**Q.** And the Ret (6 h)?
**A.** 8.7%

**Q.** What about the KIDNEY_L (6 h) of the same molecule?
**A.** 1 g

**Q.** What about the KIDNEY_R (6 h) of the same molecule?
**A.** 1 g

**Q.** What about the KIDNEY_TOTAL (6 h) of the same molecule?
**A.** 2 g

**Q.** What about the ALT (6 h) of the same molecule?
**A.** 37 IU/L

**Q.** And the AST (6 h)?
**A.** 78.8 IU/L

**Q.** What about the CRE (6 h) of the same molecule?
**A.** 0.2 mg/dL

**Q.** And the DBIL (6 h)?
**A.** 0 mg/dL

**Q.** And the GLC (6 h)?
**A.** 176.6 mg/dL

**Q.** What about the K (6 h) of the same molecule?
**A.** 4.4 meq/L

**Q.** And the LDH (6 h)?
**A.** 219.2 IU/L

**Q.** And the Na (6 h)?
**A.** 141.6 meq/L

**Q.** And the PL (6 h)?
**A.** 141.4 mg/dL

**Q.** What about the RALB (6 h) of the same molecule?
**A.** 4 g/dL

**Q.** What about the TBIL (6 h) of the same molecule?
**A.** 0.014 mg/dL

**Q.** What about the TC (6 h) of the same molecule?
**A.** 75.4 mg/dL

**Q.** What about the TP (6 h) of the same molecule?
**A.** 5.6 g/dL

**Q.** And the gamma-GTP (6 h)?
**A.** 0.8 IU/L

**Q.** What about the TERMINAL_BW (9 h) of the same molecule?
**A.** 222.6 g

**Q.** What about the Bas (9 h) of the same molecule?
**A.** 0%

**Q.** And the Eos (9 h)?
**A.** 1%

**Q.** What about the Hb (9 h) of the same molecule?
**A.** 14 g/dL

**Q.** And the Ht (9 h)?
**A.** 40.5%

**Q.** And the Lym (9 h)?
**A.** 71%

**Q.** What about the MCH (9 h) of the same molecule?
**A.** 22.2 pg

**Q.** And the MCHC (9 h)?
**A.** 34.5%

**Q.** And the MCV (9 h)?
**A.** 64.3 fL

**Q.** What about the Mono (9 h) of the same molecule?
**A.** 3.4%

**Q.** And the Neu (9 h)?
**A.** 24.4%

**Q.** And the Plat (9 h)?
**A.** 108.5 x10_4/uL

**Q.** And the RBC (9 h)?
**A.** 630.2 x10_4/ul

**Q.** What about the Ret (9 h) of the same molecule?
**A.** 9.3%

**Q.** And the KIDNEY_L (9 h)?
**A.** 1 g

**Q.** And the KIDNEY_R (9 h)?
**A.** 1 g

**Q.** What about the KIDNEY_TOTAL (9 h) of the same molecule?
**A.** 1.9 g

**Q.** And the ALT (9 h)?
**A.** 39.8 IU/L

**Q.** And the AST (9 h)?
**A.** 78 IU/L

**Q.** What about the CRE (9 h) of the same molecule?
**A.** 0.2 mg/dL

**Q.** What about the DBIL (9 h) of the same molecule?
**A.** 0 mg/dL

**Q.** And the GLC (9 h)?
**A.** 179.4 mg/dL

**Q.** And the K (9 h)?
**A.** 3.9 meq/L

**Q.** And the LDH (9 h)?
**A.** 187.2 IU/L

**Q.** And the Na (9 h)?
**A.** 141.5 meq/L

**Q.** What about the PL (9 h) of the same molecule?
**A.** 139 mg/dL

**Q.** What about the RALB (9 h) of the same molecule?
**A.** 3.9 g/dL

**Q.** What about the TBIL (9 h) of the same molecule?
**A.** 0.022 mg/dL

**Q.** What about the TC (9 h) of the same molecule?
**A.** 78.6 mg/dL

**Q.** What about the TP (9 h) of the same molecule?
**A.** 5.5 g/dL

**Q.** What about the gamma-GTP (9 h) of the same molecule?
**A.** 0.8 IU/L

**Q.** And the TERMINAL_BW (24 h)?
**A.** 236.7 g

**Q.** What about the Bas (24 h) of the same molecule?
**A.** 0%

**Q.** What about the Eos (24 h) of the same molecule?
**A.** 0.6%

**Q.** And the Hb (24 h)?
**A.** 13.8 g/dL

**Q.** What about the Ht (24 h) of the same molecule?
**A.** 38.2%

**Q.** And the Lym (24 h)?
**A.** 81.2%

**Q.** What about the MCH (24 h) of the same molecule?
**A.** 22.9 pg

**Q.** And the MCHC (24 h)?
**A.** 36.1%

**Q.** And the MCV (24 h)?
**A.** 63.5 fL

**Q.** And the Mono (24 h)?
**A.** 3%

**Q.** What about the Neu (24 h) of the same molecule?
**A.** 14.6%

**Q.** What about the Plat (24 h) of the same molecule?
**A.** 113.7 x10_4/uL

**Q.** And the RBC (24 h)?
**A.** 603 x10_4/ul

**Q.** What about the Ret (24 h) of the same molecule?
**A.** 8%

**Q.** And the KIDNEY_L (24 h)?
**A.** 1.1 g

**Q.** And the KIDNEY_R (24 h)?
**A.** 1 g

**Q.** And the KIDNEY_TOTAL (24 h)?
**A.** 2.1 g

**Q.** And the ALT (24 h)?
**A.** 42 IU/L

**Q.** What about the AST (24 h) of the same molecule?
**A.** 74.4 IU/L

**Q.** And the CRE (24 h)?
**A.** 0.2 mg/dL

**Q.** And the DBIL (24 h)?
**A.** 0 mg/dL

**Q.** What about the GLC (24 h) of the same molecule?
**A.** 182.4 mg/dL

**Q.** What about the K (24 h) of the same molecule?
**A.** 4.2 meq/L

**Q.** And the LDH (24 h)?
**A.** 190.4 IU/L

**Q.** What about the Na (24 h) of the same molecule?
**A.** 140.8 meq/L

**Q.** What about the PL (24 h) of the same molecule?
**A.** 146.4 mg/dL

**Q.** And the RALB (24 h)?
**A.** 4 g/dL

**Q.** What about the TBIL (24 h) of the same molecule?
**A.** 0.002 mg/dL

**Q.** What about the TC (24 h) of the same molecule?
**A.** 74.2 mg/dL

**Q.** What about the TP (24 h) of the same molecule?
**A.** 5.7 g/dL
